Series [1] deals with HCMV. The series is described as follows: Reversibility of HCMV inhibition, real-time PCR in supernatants. The format is cell-based, Human Cytomegalovirus (HCMV). Particulars: treated 1, 2 or 3 days, then fresh media; HCMV DNA in supernatants at day 6 post infection. The text has this: FIG. 4: Effects of monensin, nigericin, salinomycin and GCV on replication characteristics. A. Reversibility of HCMV replication: Compounds were present in HCMV-infected HFFs at the indicated intervals in days. Virus DNA was quantified by real-time PCR in supernatants at 6 days post infection. Data represent mean values (±SD) of triplicate determinations from two independent experiments. B. Inhibition of DNA replication, pp28 expression and virus DNA yield: DNA replication was quantified by real-time PCR in cells collected 48 hpi. Pp28-luciferase activity was measured in cell lysates collected at 72 hpi. Virus DNA yield was measured by real-time PCR in supernatants of infected cells collected at 96 hpi. The concentration of compounds was: 0.1 μM for monensin and nigericin, 1 μM for salinomycin and 10 μM for GCV. Data represent mean values (±SD) of triplicate determinations from two independent experiments.
The quantitative CMV real-time PCR assay is based on detection of a 151 bp region from the highly conserved US17 gene (16). The limit of detection of the assay is 100 copies/mL (3.0 copies/reaction), and the measurable range is 2.4-8.0 log10 copies/mL. The PCR was performed using a total reaction volume of 50 μL, including TaqMan 2× Universal PCR Master Mix (Applied Biosystems, Foster City, Calif.), primers (300 nM final concentration), FAM-labeled probe (200 nM final concentration), dH2O, and template (10 μl). Amplification was performed on a 7500 Real-Time PCR System (Applied Biosystems, Foster City, Calif.). PCR conditions were: 50° C. for 2 min, 95° C. for 10 min, 40 cycles of 95° C. for 15 s and 60° C. for 60 s. Quantification standards were prepared by cloning the US17 amplicon in the pCR®2.1-TOPO® plasmid vector (Invitrogen, Carlsbad, Calif.). Serial 10-fold dilutions of plasmid from 7.0 to 1.0 log10 copies/reaction were included with each assay and used to establish a standard curve. The slope and R^2 of the standard curve were −3.3±0.1 and >0.990, respectively. Assay controls included quantified CMV AD 169 DNA (Advanced Biotechnologies Inc.) and quantified Towne CMV at 3.0 and 5.0 log10 copies/mL. Quantitative CMV data were expressed as viral DNA copies per milliliter. The real-time PCR was used for quantification of HCMV replication in cell lysates at 48 hpi, virus DNA yield in supernatants at 96 hpi and for a reversibility assay (14, 16).
To test whether HCMV inhibition by monensin, nigericin and salinomycin was reversible, infected HFFs were treated for 1, 2, or 3 days followed by removal of the media containing the compounds, and adding fresh media until 6 days post infection. HCMV DNA was quantified in supernatants of infected cells at day 6 post infection by real-time PCR.
For orientation: Quantitative PCR measures a nucleic acid by following its amplification.

In series [2] the test system is HCMV. The series is described as follows: HCMV yield reduction (infectious virus released into medium, plaques). The format is cell-based, Human Cytomegalovirus (HCMV).
The subject of another series is HSV2 clinical isolates. The series can be described thus: HSV2 plaque assay in Vero cells. In kind it is cell-based. Particulars: read-out: HSV2 EC50 (μM) Plaque Number (Vero).
Series [3] concerns Wnt/β-catenin signaling proteins. The series can be described thus: Western blot of Wnt/β-catenin signaling proteins in HSV1-infected HFFs. The format is cell-based, Human. The settings on record: 48 hpi with HSV1-KOS (Dlux/OriS), concentrations resulting in full HCMV inhibition. The protocol:
FIG. 7: Effect of monensin, nigericin and salinomycin on expression of Wnt/β-catenin signaling proteins in non-infected and HSV1-infected HFFs. FIG. 7A: Expression of Wnt5a/b, Axin1, β-catenin, and actin (control) in non-infected (Mock), and HSV1-infected HFFs (MOI=0.1) treated with monensin (0.1 μM), nigericin (0.1 μM), salinomycin (1 μM) and GCV (10 μM) was determined after 48 h. Representative data from three independent experiments is shown. FIG. 7B: Expression of Wnt5a/b, Axin1, β-catenin, and actin (control) in non-infected (Mock), and HSV1-infected HFFs (MOI=0.1) treated with monensin (0.2 μM), nigericin (0.2 μM) and salinomycin (2 μM) and GCV (10 μM) was determined after 48 h. Representative data from three independent experiments is shown.
Cell lysates were quantified for protein content using bicinchoninic acid (BCA) protein assay kit (Pierce Chemical, Rockford, Ill.). Equivalent amount of proteins were mixed with an equal volume of 2× sample buffer (125 mM Tris-HCL, pH 6.8, 4% SDS, 20% glycerol and 5% β-mercaptoethanol) and boiled at 100° C. for 10 min (except for Wnt and pWnt detection for which samples were not boiled). Denatured proteins were resolved in Tris-glycine polyacrylamide gels (10-12%) and transferred to polyvinylidine difluoride (PVDF) membranes (Bio-Rad Laboratories, Hercules, Calif.) by electroblotting. Membranes were incubated in blocking solution [5% non-fat dry milk and 0.1% Tween-20 in PBS (PBST)] for 1 hr, washed three times with PBST, and incubated with appropriately diluted primary antibodies at 4° C. overnight. Membranes were washed with PBST and incubated with horseradish peroxidase-conjugated secondary antibodies in PBST for 1 hr at room temperature. Following washing with PBST, protein bands were visualized by chemiluminescence using SuperSignal West Dura and Pico reagents (Pierce Chemical, Rockford, Ill.). The following antibodies were used for detection of CMV proteins: mouse anti-IE1 and IE2, (MAb810); mouse anti-beta-actin antibody (Millipore, Billerica, Mass.); mouse anti-UL44 (Santa Cruz biotechnology Santa Cruz, Calif.); mouse anti-pp65 (Vector laboratories, Burlingame, Calif.); horseradish peroxidase (HRP)-conjugated anti-rabbit IgG (Cell Signaling Technology, Beverly, Mass.); and HRP-conjugated anti-mouse IgG, (GE Healthcare, Waukesha, Wis.). The following antibodies were used for detection of proteins in the Wnt pathway: anti-Wnt5a/b, Wnt, phospho-Wnt, Dvl2, Dvl3 and axin1 (Cell Signaling), β-catenin (E-5) (Santa Cruz biotechnology).
A general note: A western blot detects proteins with antibodies after separation by electrophoresis.

The subject of series [4] is pp28-luciferase HCMV Towne strain. The series can be described thus: microbe, parasite or virus in culture. The settings on record: for SI (selectivity index): HCMV in HFFs, mean ± SD; for EC50: Human betaherpesvirus 5, read-out: EC50 (μM), anti-HCMV activity. In kind it is cell-based, Human Cytomegalovirus (HCMV). Here is the method: The pp28-luciferase HCMV Towne strain was constructed as previously described (14). This virus expresses luciferase under the control of the late CMV gene promoter, pp28. Luciferase expression is strongly activated 48-72 hours post infection (hpi). […] A GCV-resistant HCMV strain was obtained from a patient with CMV disease. […] Human herpes virus strains were: luciferase HSV1-KOS/Dlux/oriS (15) and clinical isolates of HSV1 and HSV2. All clinical isolates were provided by the clinical virology laboratory with no identifiers that can link to a specific subject. The Johns Hopkins Office of Human Subject Research Institutional Review Board determined that this research qualified for an exemption.
Human Foreskin Fibroblasts (HFFs) passage 12-16 (ATCC, CRL-2088™) were grown in Dulbecco's Modified Eagle Medium (DMEM) containing 10% fetal bovine serum (FBS) (Gibco, Carlsbad, Calif.) in a 5% CO2 incubator at 37° C. and used for infection with HCMV or HSV at multiplicity of infection of 1 PFU/cell (MOI=1) unless otherwise specified. Following 90 minute adsorption (60 min for HSV), media was removed and cells were washed with PBS. DMEM with 4% FBS containing compounds was added to each well. For HCMV, infected, treated HFFs were collected at 72 hpi and lysates were assayed for luciferase activity using a luciferase assay kit (Promega, Madison, Wis.) on GloMax®-Multi+ Detection System (Promega) according to manufacturer's instructions.

Series [5] deals with luciferase HSV1-KOS/Dlux/oriS. The series can be described thus: HSV1-KOS/Dlux/oriS yield reduction assay in HFFs. The format is cell-based. The settings on record: Human alphaherpesvirus 1, 16 h, read-out: HSV1 EC50 (μM) Yield Reduction (HFFs).
Series [6] is described as follows: in vitro. Particulars: human.
Protocol: (§1) Cell viability was determined using a colorimetric MTT cell proliferation assay following manufacturer's instructions (Sigma-Aldrich, St. Louis, Mo.). HFFs were treated with varying concentrations of monensin, nigericin, and salinomycin and incubated at 37° C. for 3 days. After the addition of 20 μl/well of MTT (3-(4,5-Dimethyl-2-thiazolyl)-2,5-diphenyl-2H-tetrazolim bromide) (5 mg/ml in PBS), and shaking at 150 rpm for 5 minutes the plates were incubated at 37° C. for 3 hours. Conversion of yellow solution into dark blue formazan by mitochondrial dehydrogenases of living cells was quantified by measuring absorbance at 570 nm. Viable cells in culture medium containing vehicle alone (0.1% DMSO) were referred to as 100% cell viability. For each cell type used for virus infection and drug treatment, the MTT assay was performed at the same time points as the antiviral assay.
For the next series, the system named is HSV1 clinical isolates. The series can be described thus: HSV1 plaque assay in Vero cells. The format is cell-based. Particulars: read-out: HSV1 EC50 (μM) Plaque Number (Vero).
The nature of series [7]: in vitro. The settings on record: human. This is another data set of the same source.
Protocol: as §1
A short description of series [8]: in vitro. The settings on record: human. This is another data set of the same source.
Protocol: as §1
Series [9] has as its system GCV-resistant HCMV strain (UL97 mutation H520Q). The series can be described thus: GCV-resistant HCMV strain, virus DNA yield by real-time PCR. The format is cell-based, Human Cytomegalovirus (HCMV). The settings on record: Human betaherpesvirus 5, read-out: EC50 against GCV-resistant HCMV strain.
Protocol: HFFs cells were infected with a GCV-resistant HCMV and treated with monensin (0.01 μM-1 μM), nigericin (0.005 μM-0.5 μM), salinomycin (0.03 μM-10 μM) or GCV (1 μM-30 μM). Virus DNA yield was quantified by real-time PCR in supernatants of infected cells 96 hpi. Data represent mean values (±SD) of triplicate determinations from two independent experiments.
The quantitative CMV real-time PCR assay is based on detection of a 151 bp region from the highly conserved US17 gene (16). The limit of detection of the assay is 100 copies/mL (3.0 copies/reaction), and the measurable range is 2.4-8.0 log10 copies/mL. […] Quantification standards were prepared by cloning the US17 amplicon in the pCR®2.1-TOPO® plasmid vector (Invitrogen, Carlsbad, Calif.). […] Assay controls included quantified CMV AD 169 DNA (Advanced Biotechnologies Inc.) and quantified Towne CMV at 3.0 and 5.0 log10 copies/mL. Quantitative CMV data were expressed as viral DNA copies per milliliter. The real-time PCR was used for quantification of HCMV replication in cell lysates at 48 hpi, virus DNA yield in supernatants at 96 hpi and for a reversibility assay (14, 16).

Like-named read-outs stand apart in the source and are kept apart here. Bounds are passed on as bounds.

The EC50 is the concentration needed to bring the measured effect to its halfway point. `CC[C@@]1([C@@H]2O[C@@H]([C@H]3O[C@@](O)(CO)[C@H](C)C[C@@H]3C)C[C@@H]2C)CC[C@H]([C@]2(C)CC[C@]3(C[C@H](O)[C@@H](C)[C@@H]([C@@H](C)[C@@H](OC)[C@H](C)C(=O)O)O3)O2)O1` [Monensin]: in the series on HCMV [1], the “reversibility of HCMV inhibition” value was “weak irreversible inhibition”. In the series on HCMV [2] (infected HFFs treated at 0.1 μM), the “infectious virus released into the medium (yield reduction), plaques” value is “complete absence of plaques”. The EC50 in the series on HSV2 clinical isolates (Human alphaherpesvirus 2, 48 h, Vero cells, 200 PFU/well, plaques counted after 2 days) is 0.34 ± 0.04 µM; in series [4], 0.02 µM; in series [5], 0.08 µM; with HSV1 clinical isolates (Human alphaherpesvirus 1, 48 h, Vero cells, 200 PFU/well, plaques counted after 2 days), 1.6 ± 0.14 µM. The “expression of Wnt 5a/b in HSV1-infected HFFs” value in [3] was “inhibition”. In addition, in [3], the “expression of axin 1 in HSV1-infected HFFs” value is recorded as “did not reduce”. In addition, in series [3], the “expression of β-catenin in HSV1-infected HFFs” value was “did not reduce”. In series [4], the “SI (selectivity index)” value was determined as 138 ± 14. In the series “in vitro [6]”, this compound displayed a CC50 at 3 days of 3370 ± 520 nM.

For the compound `CC[C@@H](C(=O)[C@@H](C)[C@@H](O)[C@H](C)[C@@H]1O[C@@H]([C@@H](CC)C(=O)O)CC[C@@H]1C)[C@H]1O[C@]2(C=C[C@@H](O)[C@]3(CC[C@@](C)([C@H]4CC[C@](O)(CC)[C@H](C)O4)O3)O2)[C@H](C)C[C@@H]1C` [Salinomycin, salinomycin], in the series on HCMV [1], the “reversibility of HCMV inhibition” value is “fully reversible”. In the series on HCMV [2] (infected HFFs treated at 1 μM), the “infectious virus released into the medium (yield reduction), plaques” value is “complete absence of plaques”. Moreover, the EC50 with HSV2 clinical isolates (Human alphaherpesvirus 2, Vero, 48 h) is 0.07 ± 0.03 µM; in series [4] it was 0.2 ± 0.01 µM; in [5], 0.6 ± 0.1 µM; in the series with HSV1 clinical isolates (Human alphaherpesvirus 1, Vero, 48 h), 0.58 ± 0.07 µM. Further, the “expression of Wnt 5a/b in HSV1-infected HFFs” value in series [3] is given as “inhibition”. Further, the “expression of axin 1 in HSV1-infected HFFs” value in series [3] is listed as “did not reduce”. Moreover, the “expression of β-catenin in HSV1-infected HFFs” value in series [3] was “did not reduce”. For the same compound, the “SI (selectivity index)” value in [4] is 143 ± 18. This compound also displayed a CC50 at 3 days in the series “in vitro [6]” of 28400 ± 5900 nM.

As for `Nc1nc(O)c2ncn(COC(CO)CO)c2n1` [GCV, ganciclovir], the “reversibility of HCMV inhibition” value in the series on HCMV [1] is on record as “fully reversible”. Further, the CC50 in “in vitro [7]” and in the series “in vitro [8]” was > 100000 nM each time. The “SI (selectivity index)” value in series [4] amounted to 96 ± 14. Moreover, the EC50 was 2.7 ± 0.1 µM in series [4] and 7600 nM in [9]. Besides, in the series “in vitro [6]”, the CC50 at 3 days amounted to 247000 ± 33400 nM.

(Values after patent publication US9549914B2, “Treatment of human cytomegalovirus by modulating Wnt” (priority 2014, dated 2017).)
